For the test, the system named is A549 cell line. The experiment in a line: MTT cell viability, A549 cell line. It counts as cell-based, human. The following applies: Homo sapiens, A549 cell line, 24 hours, MTT. Here is the method: The above cell lines were plated in 96-well plates at a density of 1×10^4 cells/well for 16 to 20 hours. […] After drug treatment, the cell lines were washed with phosphate-buffered saline (hereinafter referred to PBS), and were replaced with fresh complete RPMI-1640 medium for 2 days. Thereafter, the medium was replaced and the cells were incubated with 0.5 mg/ml of 3-(4,5-dimethylthiazol-2-yl)-2,5-diphenyltetrazolium bromide reagent (hereinafter referred to MTT, Sigma Chemical Co., St. Louis, Mo.) in complete RPMI-1640 medium for 4 hours. The viable cells converted MTT to formazan that generates a blue-purple color when dissolved in dimethyl sulfoxide (hereinafter referred to DMSO). The intensity of formazan was measured at 565 nm using a plate reader (VERSAmax, Molecular Dynamics, Sunnyvale, Calif.). The relative percentage of cell viability was calculated by dividing the absorbance of treated cells by that of the control in each experiment.
After drug treatment, the cells were washed with PBS and replaced with fresh complete RPMI-1640 medium for 2 days. Thereafter, the medium was replaced and the cells were incubated with 0.5 mg/mL of MTT reagent (Sigma Chemical Co., St. Louis, Mo.) in complete RPMI-1640 medium for 4 hours. The intensity of formazan was measured at 565 nm using a plate reader (VERSAmax, Molecular Dynamics, Sunnyvale, Calif.). The relative percentage of cell viability was calculated by dividing the absorbance of treated cells by that of the control in each experiment.

The values that follow come from US9512086B2, “Compound for promoting apoptosis of cancer cells and a pharmaceutical composition containing the same and uses thereof” (National Chiao Tung University, priority 2014, dated 2016).

By viability is commonly meant a per cent measure of how many cells are alive, often set against a control.

The molecule `COC(=O)CCCC(=O)N1CCN(CCCOc2cc3c(Nc4ccc(F)c(Cl)c4)ncnc3cc2OC)CC1` [Analogue-3, methyl 5-(4-(3-(4-(3-chloro-4-fluorophenylamino)-7-methoxyquinazolin-6-yloxy)propyl)piperazin-1-yl)-5-oxopentanoate] registered a viability at 10 µM of 99.9%, a viability at 20 µM of 94.8%, a viability at 40 µM of 91.9% and a viability at 60 µM of 91.3%. The same molecule came in with a viability at 80 µM of 89.8%.

Molecule `CCCCCCCCOC(=O)CCC(=O)N1CCN(CCCOc2cc3c(Nc4ccc(F)c(Cl)c4)ncnc3cc2OC)CC1` [Analogue-14, octyl 4-(4-(3-(4-(3-chloro-4-fluorophenylamino)-7-methoxyquinazolin-6-yloxy)propyl)piperazin-1-yl)-4-oxobutanoate] yielded a viability at 10 µM of 87.3%, a viability at 20 µM of 80%, a viability at 40 µM of 48.7% and a viability at 60 µM of 26%. The viability at 80 µM amounted to 21.7%.

The molecule `CCCCCCCCCCCCCOC(=O)CCC(=O)N1CCN(CCCOc2cc3c(Nc4ccc(F)c(Cl)c4)ncnc3cc2OC)CC1` [Analogue-19, tridecyl 4-(4-(3-(4-(3-chloro-4-fluorophenylamino)-7-methoxyquinazolin-6-yloxy)propyl)piperazin-1-yl)-4-oxobutanoate] showed a viability at 10 µM of 93.7%, a viability at 20 µM of 93.8%, a viability at 40 µM of 71.1% and a viability at 60 µM of 20.6%. For the same molecule, the viability at 80 µM was 6.8%.

`CCCCCCCCCCCCCCCOC(=O)CCC(=O)N1CCN(CCCOc2cc3c(Nc4ccc(F)c(Cl)c4)ncnc3cc2OC)CC1` [Analogue-21, pentadecyl 4-(4-(3-(4-(3-chloro-4-fluorophenylamino)-7-methoxyquinazolin-6-yloxy)propyl)piperazin-1-yl)-4-oxobutanoate] displayed a viability at 10 µM of 92%, a viability at 20 µM of 91.2%, a viability at 40 µM of 85.5% and a viability at 60 µM of 81.6%. This molecule also registered a viability at 80 µM of 81.1%.

The molecule `CCCCCCCCCCCCCCCCOC(=O)CCC(=O)N1CCN(CCCOc2cc3c(Nc4ccc(F)c(Cl)c4)ncnc3cc2OC)CC1` [Analogue-22, hexadecyl 4-(4-(3-(4-(3-chloro-4-fluorophenylamino)-7-methoxyquinazolin-6-yloxy)propyl)piperazin-1-yl)-4-oxobutanoate] came in with a viability at 10 µM of 97.7%, a viability at 20 µM of 91.7%, a viability at 40 µM of 82.6% and a viability at 60 µM of 80%. The viability at 80 µM worked out at 74.3%.

`CCCCCCCCCOC(=O)CCC(=O)N1CCN(CCCOc2cc3c(Nc4ccc(F)c(Cl)c4)ncnc3cc2OC)CC1` [Analogue-15, nonyl 4-(4-(3-(4-(3-chloro-4-fluorophenylamino)-7-methoxyquinazolin-6-yloxy)propyl)piperazin-1-yl)-4-oxobutanoate] had a viability at 10 µM of 90%, a viability at 20 µM of 79.7%, a viability at 40 µM of 17.9% and a viability at 60 µM of 10.3%. In addition, the viability at 80 µM is 7.8%.

`COC(=O)CCCCCCC(=O)N1CCN(CCCOc2cc3c(Nc4ccc(F)c(Cl)c4)ncnc3cc2OC)CC1` [Analogue-6, methyl 8-(4-(3-(4-(3-chloro-4-fluorophenylamino)-7-methoxyquinazolin-6-yloxy)propyl)piperazin-1-yl)-8-oxooctanoate] gave a viability at 10 µM of 92%, a viability at 20 µM of 94.3%, a viability at 40 µM of 90.7% and a viability at 60 µM of 88.5%. Moreover, the viability at 80 µM stood at 88.9%.

In the case of `CCCCCCCCCCCCCCCCCCCOC(=O)CCC(=O)N1CCN(CCCOc2cc3c(Nc4ccc(F)c(Cl)c4)ncnc3cc2OC)CC1` [Analogue-25, nonadecyl 4-(4-(3-(4-(3-chloro-4-fluorophenylamino)-7-methoxyquinazolin-6-yloxy)propyl)piperazin-1-yl)-4-oxobutanoate], the viability at 10 µM is 94.5%, the viability at 20 µM was 94.8%, the viability at 40 µM came out at 92.3% and the viability at 60 µM is 89.3%. The viability at 80 µM was 88.4%.

`CCCCCCCCCCCCCCOC(=O)CCC(=O)N1CCN(CCCOc2cc3c(Nc4ccc(F)c(Cl)c4)ncnc3cc2OC)CC1` [Analogue-20, tetradecyl 4-(4-(3-(4-(3-chloro-4-fluorophenylamino)-7-methoxyquinazolin-6-yloxy)propyl)piperazin-1-yl)-4-oxobutanoate] returned a viability at 10 µM of 100%, a viability at 20 µM of 92.3%, a viability at 40 µM of 88.6% and a viability at 60 µM of 84.9%. The viability at 80 µM came out at 77.2%.

Consider `CCCCCCCOC(=O)CCC(=O)N1CCN(CCCOc2cc3c(Nc4ccc(F)c(Cl)c4)ncnc3cc2OC)CC1` [Analogue-13, heptyl 4-(4-(3-(4-(3-chloro-4-fluorophenylamino)-7-methoxyquinazolin-6-yloxy)propyl)piperazin-1-yl)-4-oxobutanoate], for which the viability at 10 µM turned out to be 89.1%, the viability at 20 µM came out at 79.9%, the viability at 40 µM stood at 59.1% and the viability at 60 µM turned out to be 35.7%. Further, the viability at 80 µM turned out to be 27.2%.

Regarding `CCCCCCCCCCCCCCCCCOC(=O)CCC(=O)N1CCN(CCCOc2cc3c(Nc4ccc(F)c(Cl)c4)ncnc3cc2OC)CC1` [Analogue-23, heptadecyl 4-(4-(3-(4-(3-chloro-4-fluorophenylamino)-7-methoxyquinazolin-6-yloxy)propyl)piperazin-1-yl)-4-oxobutanoate], the viability at 10 µM was determined as 95.7%, the viability at 20 µM was 97.2%, the viability at 40 µM is 85.2% and the viability at 60 µM was determined as 84.1%. The molecule also returned a viability at 80 µM of 83.2%.

Consider `COC(=O)CCCCCCCC(=O)N1CCN(CCCOc2cc3c(Nc4ccc(F)c(Cl)c4)ncnc3cc2OC)CC1` [Analogue-7, methyl 9-(4-(3-(4-(3-chloro-4-fluorophenylamino)-7-methoxyquinazolin-6-yloxy)propyl)piperazin-1-yl)-9-oxononanoate], for which the viability at 10 µM was 90.3%, the viability at 20 µM worked out at 89.7%, the viability at 40 µM stood at 85.8% and the viability at 60 µM worked out at 84.8%. The viability at 80 µM was determined as 80.9%.

On to `CCCCCCCCCCCCCCCCCCOC(=O)CCC(=O)N1CCN(CCCOc2cc3c(Nc4ccc(F)c(Cl)c4)ncnc3cc2OC)CC1` [Analogue-24, octadecyl 4-(4-(3-(4-(3-chloro-4-fluorophenylamino)-7-methoxyquinazolin-6-yloxy)propyl)piperazin-1-yl)-4-oxobutanoate], for which the viability at 10 µM came out at 94.8%, the viability at 20 µM amounted to 90.5%, the viability at 40 µM is 91% and the viability at 60 µM was 87.2%. This molecule returned a viability at 80 µM of 86.7%.

`CCCCCCCCCCCCCCCCCCCCOC(=O)CCC(=O)N1CCN(CCCOc2cc3c(Nc4ccc(F)c(Cl)c4)ncnc3cc2OC)CC1` [Analogue-26, icosyl 4-(4-(3-(4-(3-chloro-4-fluorophenylamino)-7-methoxyquinazolin-6-yloxy)propyl)piperazin-1-yl)-4-oxobutanoate] gave a viability at 10 µM of 94%, a viability at 20 µM of 90.8%, a viability at 40 µM of 87.1% and a viability at 60 µM of 86.9%. This molecule showed a viability at 80 µM of 85.2%.

For the molecule `CCCOC(=O)CCC(=O)N1CCN(CCCOc2cc3c(Nc4ccc(F)c(Cl)c4)ncnc3cc2OC)CC1` [Analogue-9, propyl 4-(4-(3-(4-(3-chloro-4-fluorophenylamino)-7-methoxyquinazolin-6-yloxy)propyl)piperazin-1-yl)-4-oxobutanoate], the viability at 10 µM came out at 95.1%, the viability at 20 µM was determined as 87%, the viability at 40 µM amounted to 80.9% and the viability at 60 µM turned out to be 70.4%. In addition, the viability at 80 µM came to 23.4%.

`COC(=O)CCCCCC(=O)N1CCN(CCCOc2cc3c(Nc4ccc(F)c(Cl)c4)ncnc3cc2OC)CC1` [Analogue-5, methyl 7-(4-(3-(4-(3-chloro-4-fluorophenylamino)-7-methoxyquinazolin-6-yloxy)propyl)piperazin-1-yl)-7-oxoheptanoate] yielded a viability at 10 µM of 95.2%, a viability at 20 µM of 91.7%, a viability at 40 µM of 90.1% and a viability at 60 µM of 83.4%. The molecule also had a viability at 80 µM of 82.4%.

Take `CCCCCCCCCCOC(=O)CCC(=O)N1CCN(CCCOc2cc3c(Nc4ccc(F)c(Cl)c4)ncnc3cc2OC)CC1` [Analogue-16, decyl 4-(4-(3-(4-(3-chloro-4-fluorophenylamino)-7-methoxyquinazolin-6-yloxy)propyl)piperazin-1-yl)-4-oxobutanoate]: the viability at 10 µM was determined as 95.7%, the viability at 20 µM came to 88.2%, the viability at 40 µM was determined as 15.5% and the viability at 60 µM turned out to be 3.9%. The molecule also came in with a viability at 80 µM of 2%.
